Experimental data: US9351940B2, “Nanoparticles comprising esters of poly (methyl vinyl ether-co-maleic anhydride) and uses thereof” (priority 2011, dated 2016)
Converted amounts (≈) assume the structure as drawn.

Assay: Water solubility of KTZ in aqueous suspension without polymer
Assay type: physicochemical
Settings: kinetic from dmso stock, aqueous suspension after precipitation from alcoholic solution, no polymer
Protocol: The selection of the appropriate Ketoconazole:polymer ratio (w/w) which is needed to dissolve drug crystals and to obtain homogeneous nanoparticles free from drug crystals was firstly optimized. For that purpose, 200 mg of KTZ were resuspended in different volumes of both absolute ethanol (10, 15 and 20 mL) as control solution or in the same volumes of GANTREZ® ES 425 ethanolic solution (50 mg/mL). GANTREZ® ES nanoparticles were produced by the addition of the corresponding volume of bidistilled water (2:1 (v/v) water/polymer solution) to GANTREZ® ES alcoholic solutions containing KTZ. […] Finally, the aqueous suspensions of KTZ-loaded GANTREZ® ES nanoparticles and KTZ aqueous suspension without the polymer were collected for further characterization and drug content quantification.
The amount of encapsulated drug in the nanoparticles was assayed by UV spectrophotometry at 257 nm (Shimadzu 1203 UV-VIS). In order to quantify the amount of KTZ in the nanoparticles suspension or free KTZ suspension without the polymer GANTREZ® ES), all samples of fleshly prepared formulations were evaporated under reduced pressure to eliminate ethanol, and then 1 mL of triplicate samples were centrifuged at 20,000 rpm for 25 min. […]

Question: For CC(=O)N1CCN(c2ccc(OCC3COC(Cn4ccnc4)(c4ccc(Cl)cc4Cl)O3)cc2)CC1 (stereo not shown) [KTZ, Ketoconazole], which solubility is on record?
Answer: Its solubility is roughly 11 µg/mL (≈ 20.7 µM).
